The numbers were not newly measured in patent US11103501B2, “Dry powder formulation of azole derivative for inhalation” (priority 2011, dated 2021), which cites them from elsewhere.

SMILES strings stand for the structures.

For orientation: solubility means how much of the substance goes into solution per volume. Turning to `CCC(C)n1ncn(-c2ccc(N3CCN(c4ccc(OCC5COC(Cn6cncn6)(c6ccc(Cl)cc6Cl)O5)cc4)CC3)cc2)c1=O` (centres unmarked) [itraconazole], the water solubility is less than 1 µg/mL. Further, the solubility (pII 7) was less than 1 µg/mL.
